Assay results: patent US20230390251A1, “METHODS OF TREATING RIBONUCLEOTIDE REDUCTASE-RELATED DISEASES WITH A RIBONUCLEOTIDE REDUCTASE INHIBITOR” (TAIHO PHARMACEUTICAL CO., LTD., priority 2020, published 2023)

Experiments:
[1] = system: Human acute myelocytic leukemia (AML) cell line MV-4-11 cells; test: Anti-tumor effect (relative tumor volume) in nude mice implanted with MV-4-11 cells; format: in vivo; conditions: for effect of reducing tumor volume (RTV) compared to the Control Group: Day 15
Procedure: Anti-tumor Effect and body weight change in QOD Dosing Regimen Human acute myelocytic leukemia (AML) cell line MV-4-11 cells (American Type Culture Collection CRL-9591™) were implanted in the right thorax of male nude mice (CLEA Japan, Inc.). After implantation of the tumor, the major axis (mm) and minor axis (mm) of the tumor were measured, and tumor volume (TV) was calculated for each mouse. Then, the mice were assigned to the following groups, Control group (◯), Continuous Dosing Group (●: 100 mg/kg/day; ⋄: 150 mg/kg/day) and QOD Dosing Group (▴: 200 mg/kg/day; ♦: 300 mg/kg/day), so that the average TV of each group was equivalent. The day in which the grouping (n=5) was conducted was taken as Day 0.
5-chloro-2-(N-((1S,2R)-2-(6-fluoro-2,3-dimethylphenyl)-1-(5-oxo-4,5-dihydro-1,3,4-oxadiazol-2-yl)propyl)sulfamoyl)benzamide (Compound A) was suspended in 5 mg/mL hypromellose solution to provide appropriate test samples for 100 mg/kg, 150 mg/kg. 200 mg/kg, and 300 mg/kg dosing regimen. Animals of the Control group were not treated.
To mice in the Continuous Dosing Group, 100 mg/kg/day or 150 mg/kg/day of Compound A was orally administered once daily from Day 1 to Day 14. The total dosage for mice in the Continuous Dosing Group administered 100 mg/kg/day (Group C-1) was 1400 mg/kg, and the total dosage for mice in the Continuous Dosing Group administered 150 mg/kg/day (Group C-2) was 2100 mg/kg.
To mice in the QOD Dosing Group, 200 mg/kg/day or 300 mg/kg/day of Compound A was orally administered once every other day for two weeks (Days 1, 3, 5, 7, 9, 11 and 13). The total dosage for mice in the QOD Dosing Group administered 200 mg/kg/day (Group QOD-1) was 1400 mg/kg, and the total dosage for mice in the QOD Dosing Group administered 300 mg/kg/day (Group QOD-2) was 2100 mg/kg.
On Days 4, 8, 11 and 15, using the following formula: TV (mm^3)=(major axis×minor axis^2)/2, relative tumor volume (RTV) was calculated as an index of anti-tumor effect during the dosing period for each group (FIG. 1).
Similar to Example 1, anti-tumor effect and body weight change were studied in mice harboring MV-4-11 cells among the following five groups: Control group (◯), Continuous Dosing Group (●: 100 mg/kg/day; ⋄: 150 mg/kg/day) and QW Dosing Group (▪: 700 mg/kg/day; x: 1050 mg/kg/day).
To mice in the QW Dosing Group, 700 mg/kg/day or 1050 mg/kg/day of Compound A was orally administered once per week for two weeks (Days 1 and 8). The total dosage for mice in the QW Dosing Group administered 700 mg/kg/day (Group QW-1) was 1400 mg/kg, and the total dosage for mice in the QW Dosing Group administered 1050 mg/kg/day (Group QW-2) was 2100 mg/kg.
(§1) Similar to Example 1, anti-tumor effect and body weight change were studied in mice harboring MV-4-11 cells among the following five groups: Control group (◯), Continuous Dosing Group (●: 100 mg/kg/day; ⋄: 150 mg/kg/day) and 3QW Dosing Group 1 (▴: 233 mg/kg/day; ♦: 350 mg/kg/day).
To mice in the 3QW Dosing Group 1, 233 mg/kg/day or 350 mg/kg/day of Compound A was orally administered three days consecutively per week for two weeks (Days 1-3 and 8-10). The total dosage for mice in the 3QW Dosing Group 1 administered 233 mg/kg/day (Group 3QW1-1) was 1400 mg/kg, and the total dosage for mice in the 3QW Dosing Group 1 administered 350 mg/kg/day (Group 3QW1-2) was 2100 mg/kg.
as §1, with “Anti-tumor Effect and body weight change in 3QW Dosing Regimen 2 Similar” for “Similar”, “group (0),” for “group (◯),”, “Group 2” for “Group 1”
To mice in the 3QW Dosing Group 2, 233 mg/kg/day or 350 mg/kg/day of Compound A was orally administered every other day three times per week for two weeks (Days 1, 3, 5, 8, 10 and 12). […]

NCI-H460 cells = test: Caspase-Glo 3/7 caspase induction assay in NCI-H460 cells treated with siRNA against SLFN11; format: cell-based; conditions: 10 micro mol/L, 24 h; NCI-H460 cells transfected with siRNA against SLFN11
Procedure: (§2) A673 cells, NCI-H460 cells and CFPAC-1 cells were transfected with 1 nM siRNAs for 24 h using Lipofectaminet®RNAiMAX Reagent (Thermo Fisher Scientific Inc.) and then re-seeded onto a 96-well plate for cell proliferation assay and caspase induction assay and onto dishes for immunoblotting analysis. siRNAs were obtained from Thermo Fisher Scientific Inc. as follows: Silencer® Select Negative Control #1 siRNA (#4390843 used as siControl), SLFN11 Silencer® Select Pre-designed siRNA (#s40703 used as siSLFN11-1, #s40704 as siSLFN11-2, and #s40702 as siSLFN11-3).
Caspase induction assay was performed in accordance with conventional methods, available in Hasako., et al., ibid. Briefly, the cells with siRNAs for 24 h were seeded onto 96 well plate, incubated for 24 h, and then treated with Compound A for 24 h. Caspase induction was detected by using the Caspase-Glo 3/7 assay (Promega).

CFPAC-1 cells = test: Cell proliferation assay in CFPAC-1 cells treated with siRNA against SLFN11; format: cell-based; conditions: pancreatic cancer cell line CFPAC-1, siSLFN11 vs siControl, 3 days of exposure
Procedure: as §2
Cell proliferation assay was performed in accordance with conventional methods, available in Hasako, et al., ibid. Briefly, cells treated with siRNAs for 24 h were plated onto 96 well plate and incubated for 24 h, followed by 3 days of exposure to the compound A. After compound exposure, viable cells were detected by using the CellTiter-Glo luminescent cell viability assay (Promega).

## Cc1ccc(F)c([C@@H](C)[C@H](NS(=O)(=O)c2ccc(Cl)cc2C(N)=O)c2n[nH]c(=O)o2)c1C [Compound A, 5-chloro-2-(N-((1S,2R)-2-(6-fluoro-2,3-dimethylphenyl)-1-(5-oxo-4,5-dihydro-1,3,4-oxadiazol-2-yl)propyl)sulfamoyl)benzamide]
[1]; 3QW (consecutive) 350 mg/kg/day vs continuous 150 mg/kg/day, total dosage 2100 mg/kg, not statistically significant
  effect of reducing tumor volume, Group 3QW1-2 compared with Group C-2: similar
[1]; 3QW (every other day) 233 mg/kg/day vs continuous 100 mg/kg/day, total dosage 1400 mg/kg, t-test P<0.05
  effect of reducing tumor volume, Group 3QW2-1 compared with Group C-1: higher than Group C-1
[1]; 3QW (every other day) 350 mg/kg/day vs continuous 150 mg/kg/day, total dosage 2100 mg/kg, not statistically significant
  effect of reducing tumor volume, Group 3QW2-2 compared with Group C-2: similar
[1]; 3QW Dosing Group 1, 233 or 350 mg/kg/day orally Days 1-3 and 8-10
  effect of reducing tumor volume (RTV) compared to the Control Group: showed the effect of reducing tumor volume compared to the Control Group
[1]; 3QW Dosing Group 2, 233 or 350 mg/kg/day orally Days 1, 3, 5, 8, 10 and 12
  effect of reducing tumor volume (RTV) compared to the Control Group: showed the effect of reducing tumor volume compared to the Control Group
[1]; 5QW (2 on/1 off/3 on/1 off) 210 mg/kg/day vs continuous 150 mg/kg/day, total dosage 2100 mg/kg, t-test p<0.05
  effect of reducing tumor volume, Group 5QW2-2 compared with Group C-2: higher than Group C-2 with a statistically significant difference
[1]; 5QW (consecutive) 210 mg/kg/day vs continuous 150 mg/kg/day, total dosage 2100 mg/kg, not statistically significant
  effect of reducing tumor volume, Group 5QW1-2 compared with Group C-2: similar
[1]; 5QW Dosing Group 1, 140 or 210 mg/kg/day orally Days 1-5 and 8-12
  effect of reducing tumor volume (RTV) compared to the Control Group: showed the effect of reducing tumor volume compared to the Control Group
[1]; 5QW Dosing Group 2, 140 or 210 mg/kg/day orally Days 1-2, 4-6, 8-9 and 11-13
  effect of reducing tumor volume (RTV) compared to the Control Group: showed the effect of reducing tumor volume compared to the Control Group
[1]; Continuous Dosing Group, 100 or 150 mg/kg/day orally once daily Day 1 to Day 14
  effect of reducing tumor volume (RTV) compared to the Control Group: showed the effect of reducing tumor volume compared to the Control Group
[1]; QOD 200 mg/kg/day vs continuous 100 mg/kg/day, total dosage 1400 mg/kg, t-test p<0.05
  effect of reducing tumor volume, Group QOD-1 compared with Group C-1: higher than Group C-1
[1]; QOD 300 mg/kg/day vs continuous 150 mg/kg/day, total dosage 2100 mg/kg, not statistically significant
  effect of reducing tumor volume, Group QOD-2 compared with Group C-2: similar
[1]; QOD Dosing Group, 200 or 300 mg/kg/day orally Days 1, 3, 5, 7, 9, 11 and 13
  effect of reducing tumor volume (RTV) compared to the Control Group: showed the effect of reducing tumor volume compared to the Control Group
[1]; QW 1050 mg/kg/day vs continuous 150 mg/kg/day, total dosage 2100 mg/kg, not statistically significant
  effect of reducing tumor volume, Group QW-2 compared with Group C-2: similar
[1]; QW Dosing Group, 700 or 1050 mg/kg/day orally Days 1 and 8
  effect of reducing tumor volume (RTV) compared to the Control Group: showed the effect of reducing tumor volume compared to the Control Group
NCI-H460 cells
  compound-induced caspase-3/7 activation after SLFN11 knockdown: suppression
CFPAC-1 cells
  effect of SLFN11 knockdown with siRNA on the cytotoxic effect: SLFN11 knockdown significantly suppressed the cytotoxic effect
